Data set [1] in a line: Compound stability in rat liver microsomes. It is filed as in vitro ADME. The conditions noted are these: for half-life: pH 7.4, 37° C., NADPH, read-out: Rat T1/2; for CLint scaled: pH 7.4, in vivo CLint extrapolated.
Data set [2] is described as follows: Pharmacokinetics after intravenous and oral administration in rats. The conditions noted are these: for clearance (CL) / AUC(0-t) / half-life / Vd: iv dosing, 1 mg/kg; for F: oral bioavailability; for AUC(0-t) / half-life / Vd: rat, plasma; for Vd: read-out: Vss. In kind it is in vivo.

The structures appear in SMILES notation.

Regarding `Cn1cc(Nc2ncc(Cl)c(NC3CCN(c4ccc(C#N)cn4)CC3)n2)cn1` [Ex. 1, 6-(4-((5-chloro-2-((1-methyl-1H-pyrazol-4-yl)amino)pyrimidin-4-yl)amino)piperidin-1-yl)nicotinonitrile], in data set [1], the half-life came to 27.7 min and the CLint scaled is 89.7 mL/min/kg. For the same compound, in data set [2], the “clearance (CL)” value turned out to be 3.83 mL/min/kg, the F turned out to be 136.8%, the AUC(0-t) was determined as 4660 ng·h/mL and the half-life is 58.8 min. The Vd in data set [2] was determined as 0.31 L/kg.

In the case of `Cc1nn(C)cc1Nc1ncc(Cl)c(NC2CCN(c3ccc(C#N)nn3)CC2)n1` [Ex. 11, 6-(4-((5-chloro-2-((1,3-dimethyl-1H-pyrazol-4-yl)amino)pyrimidin-4-yl)amino)piperidin-1-yl)pyridazine-3-carbonitrile], in data set [1], the half-life worked out at 23.6 min and the CLint scaled was 105 mL/min/kg. Also, in data set [2], the “clearance (CL)” value came out at 17.7 mL/min/kg, the F was found to be 61.8%, the AUC(0-t) worked out at 931 ng·h/mL and the half-life was 27 min. Moreover, the Vd in data set [2] turned out to be 0.62 L/kg.

`Cc1c2ccc(Nc3ncc(Cl)c(NC4CCN(c5ccc(C#N)cn5)CC4)n3)cc2nn1C` [Ex. 4]: in data set [1], the half-life came to 23.2 min and the CLint scaled is 107 mL/min/kg. In data set [2], the “clearance (CL)” value was determined as 7.17 mL/min/kg, the F came out at 78.76%, the AUC(0-t) is 2340 ng·h/mL and the half-life was 103 min. The Vd in data set [2] turned out to be 0.72 L/kg.

With `Cc1c2ccc(Nc3ncc(Cl)c(NC4CCN(c5ccc(C#N)nn5)CC4)n3)cc2nn1C` [Ex. 12, 6-(4-((5-chloro-2-((2,3-dimethyl-2H-indazol-6-yl)amino)pyrimidin-4-yl)amino)piperidin-1-yl)pyridazine-3-carbonitrile], in data set [1], the half-life amounted to 18.9 min and the CLint scaled is 131 mL/min/kg. In addition, in data set [2], the “clearance (CL)” value turned out to be 11.3 mL/min/kg, the F worked out at 39.2%, the AUC(0-t) came out at 1480 ng·h/mL and the half-life is 29.4 min. The Vd in data set [2] came to 0.5 L/kg.

On to `CN(c1nc(Nc2cnn(C)c2)ncc1Cl)C1CCN(c2ccc(C#N)cn2)CC1` [Ex. 5, 6-(4-((5-chloro-2-((1-methyl-1H-pyrazol-4-yl)amino)pyrimidin-4-yl) (methyl)amino)piperidin-1-yl)nicotinonitrile], for which, in data set [1], the half-life came out at 16.5 min and the CLint scaled is 150 mL/min/kg. For the same compound, in data set [2], the “clearance (CL)” value is 29.7 mL/min/kg, the F turned out to be 182.46%, the AUC(0-t) worked out at 572 ng·h/mL and the half-life was 30.6 min. Moreover, the Vd in data set [2] was 0.67 L/kg.

As to `Cc1nn(C)cc1Nc1ncc(Cl)c(NC2CCN(c3ccc(C#N)cn3)CC2)n1` [Ex. 10, 6-(4-((5-chloro-2-((1,3-dimethyl-1H-pyrazol-4-yl)amino)pyrimidin-4-yl)amino)piperidin-1-yl)nicotinonitrile], in data set [1], the half-life turned out to be 17.4 min and the CLint scaled was 142 mL/min/kg. Further, in data set [2], the “clearance (CL)” value was 9.67 mL/min/kg, the F came out at 75.3%, the AUC(0-t) was determined as 1740 ng·h/mL and the half-life is 43.2 min. For the same compound, the Vd in data set [2] is 0.63 L/kg.

On to `Cc1cc(Nc2ncc(Cl)c(NC3CCN(c4ccc(C#N)nn4)CC3)n2)nn1C` [Ex. 13, 6-(4-((5-chloro-2-((1,5-dimethyl-1H-pyrazol-3-yl)amino)pyrimidin-4-yl)amino)piperidin-1-yl)pyridazine-3-carbonitrile], for which, in data set [1], the half-life was determined as 9.68 min and the CLint scaled was 257 mL/min/kg.

Source of the values: patent US10059689B2, “Substituted heteroaryl compounds and methods of use” (Sunshine Lake Pharma Co., Ltd., priority 2014, dated 2018).
